Reference: BindingDB's records for patent US10081629 (Jiangsu Hengrui Medicine, 2018)

Molecular target: T1, Prostaglandin E synthase (Homo sapiens, UniProt O14684)
T1 sequence (O14684 whole entry): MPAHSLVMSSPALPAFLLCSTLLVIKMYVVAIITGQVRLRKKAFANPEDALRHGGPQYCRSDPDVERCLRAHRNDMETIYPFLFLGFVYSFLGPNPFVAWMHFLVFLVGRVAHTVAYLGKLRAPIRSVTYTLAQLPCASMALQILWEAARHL
Test: mPGES1 enzyme assay
Experimental: mPGES1 was diluted with assay buffer and added into plate at 49 μL/well supplemented with 1 μL of compound (the final concentration of each compound at seven gradient concentrations was 10000 nM, 1000 nM, 100 nM, 10 nM, 1 nM, 0.1 nM and 0.01 nM). […] Then, each well was added with 53.8 μL of 6 mg/mL SnCl2 to quench the reaction. The sample was diluted with dilute buffer at 1:400. 10 μl of diluted sample, 5 μL PGE2-d2 and 5 μL anti-PGE2 Cryptate were added to a black 384-well plate, and incubated at 4° C. overnight. HTRF was determined using Flexstation, and the IC50 of the compounds was obtained by data processing software.

IC50: 13.4 nM
Structure (SMILES): COCCn1c(C2=CC=C(C(F)(F)F)CC2)cc2cc(NC(=O)c3cc(CNC(=O)C(C)(C)F)cnc3C(F)F)ccc21 [US10081629, Example 27]
